For one data set, the system named is migraine. The conditions noted are these: cited from earlier work; for Pain freedom at 2 hours / Pain relief at 2 hours: lowest oral dose.
Data set [1] in a line: Solubility of zolmitriptan in various acids. The conditions noted are these: 5 °C, thermodynamic from solid, 2-8° C. The format is physicochemical. The text has this: The suspension was then centrifuged.
Data set [2] has as its target T1, recombinant human 5-HT1B receptors (Homo sapiens, UniProt P28222).
T1 construct: expressed in transfected cells; host or cells: CHO-K1
Kind of data set: Ligand-receptor binding kinetics, 3H-5-carboxamidotryptamine competition, CHO-K1 membranes. As for the experimental part:
(§1) Membrane preparations were derived from transfected CHO-K1 cells expressing recombinant human 5-HT1B and 5-HT1D receptors. […] After incubating for various lengths of time, membranes were washed by filtration and residual ^3H counts were determined on a microplate scintillation counter. On-rate constant (kon), off-rate constant (koff), and equilibrium dissociation constant (KD) were determined using nonlinear regression on Prism 4 (GraphPad), and Xlfit (IDBM) software. The following formulae were used in calculating additional parameters using previously derived^2 pharmacokinetic data in healthy human volunteers. Residence time for each ligand on 5-HT1B and 5-HT1D receptors=1/koff.

Data set [3] has as its target T2, recombinant human 5-HT1D receptors (Homo sapiens, UniProt P28221).
T2 construct: expressed in transfected cells; host or cells: CHO-K1
Described as above. As for the experimental part: as §1

For data set [4] the following is noted: cited from earlier work; for Bioavailability: oral tablet.
A short description of another data set: clinical. As for the experimental part: The final treatment administered was 3.8 mg on a 10 cm^2 patch using an applicator with 0.52 Joule of application energy in the intracutaneous microneedle system described herein. The products tested were:
This was a single-center, open-label, randomized five-way crossover study (Part 1) followed by a sequential study of two additional treatments (Parts 2 and 3). After obtaining informed consent and establishing eligibility, each subject received each of the seven study treatments once, followed by in-clinic monitoring and extensive blood sample collection for pharmacokinetic analysis. […] Plasma samples from the initial dosing days were sent to the analytical laboratory for analysis, and tolerability for each of the dose levels was summarized. […] During Part 3, subjects received a single 3.8 mg patch (applied with a 0.52 J applicator) and also completed identical procedures to the previous dosing days. After completion of the seven dosing days, subjects were assessed one final time and dismissed from the study.
Twenty subjects were enrolled in the study, 10 males and 10 females. The subjects mean age was 29 years±3.5 years with a mean BMI of 24.4±3.5.
PK parameters were summarized by treatment group using descriptive statistics (arithmetic means, standard deviations, coefficients of variation, sample size, minimum, maximum, and median).

The next data set in a line: in vivo. The arrangement: species or system swine. Conditions: Yorkshire, pig, iv. As for the experimental part:
The M207 patch was tested in swine. Intravenously administered zolmitriptan was used as a control. The inner thigh of the swine was used as the site of administration.
The low limit of quantitation (LLOQ) and high-limit of quantitation (HLOQ) were 0.1 and 1000 ng/mL, respectively. A four minute method utilizing high performance liquid chromatography-electrospray ionization-tandem mass spectrometry (HPLC-ESI-MS/MS) was developed for quantitation of zolmitriptan and its two major metabolites in HGP plasma. The instrumentation consist of Agilent® 1200 pumps, CTC PAL® Autosampler with cooling stack, AB Sciex® TurboV® ESI source, and API 4000® mass spectrometer.
All plasma samples and standards were first protein precipitated using 100% methanol and then diluted with 30% solution of acetonitrile at 1:2 ratio (Plasma: 30% ACN), 20 μL of this solution was injected into autosample. The autosample was equipped with a 100 μL syringe and a 100 μL loop. […]
The HPLC method used was a reversed phase gradient method (0.0 min, 10% B; 0.5 min, 10% B; 1.0 min, 40% B; 1.7 min, 40% B; 2.1 min, 10% B; 4.0 min, 10% B). […] During the mass spectrometer acquisition, eleven MRM transitions were monitored. […] The peak areas under each corresponding MRM transitions were summed and compared to that of spiked standard plasma samples to calculated concentration for each sample. […]

The next data set has as its system 5HT1B/1D. The conditions noted are these: cited from earlier work.
The mark [5] stands for this setting: both, human, in vivo, AUC0-2 hr (SD).
Where [6] appears, read: both, human, in vivo, AUC0-last (SD).
Where [7] appears, read: both, human, in vivo, AUC2 hrs, Mean.
Where [8] appears, read: both, human, in vivo, AUCinf, Mean.
Where [9] appears, read: both, human, in vivo, Cmax (SD).
[10] abbreviates: both, human, in vivo, Cmax, Mean.
Where [11] appears, read: both, human, in vivo, Tmax Med (Range).
[12] abbreviates: both, human, in vivo, t1/2, Mean.
Setting [13] is: plasma N-desmethyl zolmitriptan metabolite.
Where [14] appears, read: plasma N-desmethyl zolmitriptan metabolite, in ng·h/mL.

The source of these data is patent US11660265B2, “Method of rapidly achieving therapeutic concentrations of triptans for treatment of migraines and cluster headaches” (ZP Opco, Inc., priority 2018, dated 2023).

Converted amounts (≈) assume the structure as drawn. Like-named read-outs stand apart in the source and are kept apart here.

T1 sequence (P28222 whole entry): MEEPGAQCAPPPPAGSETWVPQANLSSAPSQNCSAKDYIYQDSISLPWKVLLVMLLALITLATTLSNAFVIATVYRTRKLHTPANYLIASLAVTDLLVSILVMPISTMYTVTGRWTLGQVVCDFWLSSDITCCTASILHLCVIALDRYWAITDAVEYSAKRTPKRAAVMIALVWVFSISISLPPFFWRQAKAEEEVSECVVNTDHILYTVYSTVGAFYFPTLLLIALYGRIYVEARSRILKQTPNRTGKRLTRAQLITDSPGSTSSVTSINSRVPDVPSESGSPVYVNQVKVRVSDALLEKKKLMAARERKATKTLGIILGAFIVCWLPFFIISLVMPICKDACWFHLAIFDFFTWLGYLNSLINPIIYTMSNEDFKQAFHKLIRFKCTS
T2 sequence (P28221 whole entry): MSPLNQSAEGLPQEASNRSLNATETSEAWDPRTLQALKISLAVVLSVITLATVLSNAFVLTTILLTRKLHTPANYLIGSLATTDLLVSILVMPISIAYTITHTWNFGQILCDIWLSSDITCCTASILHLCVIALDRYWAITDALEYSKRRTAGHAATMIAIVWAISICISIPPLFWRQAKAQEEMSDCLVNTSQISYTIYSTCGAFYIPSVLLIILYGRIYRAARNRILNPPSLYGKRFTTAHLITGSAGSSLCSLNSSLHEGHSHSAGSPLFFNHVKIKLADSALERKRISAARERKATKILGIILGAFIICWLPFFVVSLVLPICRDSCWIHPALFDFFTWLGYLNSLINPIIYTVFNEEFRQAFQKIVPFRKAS

As for `CN(C)CCc1c[nH]c2ccc(C[C@H]3COC(=O)N3)cc12` [Zolmitriptan, zolmitriptan], the “Pain freedom at 2 hours” value in the data set with migraine is 29%. For the same compound, in the data set with migraine, the “Pain relief at 2 hours” value is reported as 62%. Further, the solubility – broadly, the dissolved amount per volume that the medium holds – in data set [1] (aqueous buffer, 0.1 M citric acid) was 88.6 mg/mL (≈ 308 mM); in data set [1] (aqueous buffer, 0.1 M maleic acid) it was 50.5 mg/mL (≈ 176 mM); in data set [1] (aqueous buffer, 0.1 M succinic acid), 59.1 mg/mL (≈ 206 mM); in data set [1] (aqueous buffer, 0.1 M tartaric acid) it was 63.3 mg/mL (≈ 220 mM); in data set [1] (simulated gastric fluid, 0.1 M HCl), 33.3 mg/mL (≈ 116 mM). Further, the equilibrium dissociation constant (Kd) (commonly the constant that tells how readily two partners part at equilibrium) was 1.47 nM in data set [2] and 0.34 nM in data set [3]. Besides, the koff (usually a measure of how fast the partners let go of each other) in data set [2] (read-out: koff (converted)) was 0.00127 s⁻¹; in data set [3] (read-out: koff (converted)) it was 0.001 s⁻¹. The figures for the on-rate constant (kon) in data set [2] (read-out: kon (converted)) and in data set [3] (read-out: kon (converted)) were 883000 M⁻¹ s⁻¹ and 2.9e+06 M⁻¹ s⁻¹, respectively. The Tmax (as a rule, the time at which the peak concentration occurs) in data set [4] (nasal administration) is “about 1.5 hours”; in the data set “clinical” (both, human, in vivo, 2.5 mg, tmax Median (Range)) it was 1 h; in the data set “clinical” (both, human, in vivo, tmax Median (Range)) it was 0.3 h; in the data set “in vivo”, 1 min. The AUC(0-t) (in general, exposure summed from dosing to a finite time, without extrapolation to infinity) in “clinical” (both, human, in vivo, 2.5 mg, AUC2 hrs Mean (SD)) worked out at 4.72 ng·h/mL. In “clinical” (both, human, in vivo, 2.5 mg, AUCinf Mean (SD)), the AUC(0-inf) – broadly, total exposure, with the tail of the curve extrapolated – amounted to 27.2 ng·h/mL. Moreover, the Cmax (commonly the peak of the concentration-time curve) in the data set “clinical” (both, human, in vivo, 2.5 mg, Cmax Mean (SD)) was 3.77 ng/mL. Moreover, the half-life (as a rule, the time in which the quantity being followed falls by half) in the data set “clinical” (both, human, in vivo, 2.5 mg, t1/2 Mean (SD)) was 196 min; in “clinical” (both, human, in vivo, t1/2 Mean (SD)) it was 91.8 min.

As for `CN(C)CCc1c[nH]c2ccc(C[C@H]3COC(=O)N3)cc12` [Zolmitriptan 2.5 mg Oral Tablet, zolmitriptan], in data set [4] (conventional release tablets), the “Reduction of Cmax and AUC by administration with food” value is given as 13-16%. The Bioavailability in data set [4] was 41 and 48%. In “clinical” (both, human, in vivo), the AUC0-last / Dose is 8.6 ng·h/mL/mg. Moreover, in “clinical” (both, human, in vivo), the “Time to peak plasma concentration of the N-desmethyl metabolite” value was 2.7 h. Besides, the “Tmax of N-desmethyl metabolite” value in the data set “clinical” (both, human, in vivo) worked out at 162.6 min. Also, the “Tmax, Mean” value in the data set “clinical” (both, human, in vivo) worked out at 107.4 min. The area under the curve AUC(0-t) in the data set “clinical” (setting [5]) was determined as 4.7 ng·h/mL; in the data set “clinical” (both, human, in vivo, AUC0-last), 22.2 ng·h/mL; in the data set “clinical” (setting [6]) it was 22.2 ng·h/mL; in the data set “clinical” (setting [7]), 4.72 ng·h/mL; in the data set “clinical” (both, human, in vivo, AUC2 hrs, Median), 4.92 ng·h/mL; in the data set “clinical” (both, human, in vivo, AUCt, Mean) it was 22.2 ng·h/mL. In addition, the AUC(0-t) in “clinical” (both, human, in vivo, AUCt, Median) was 22.6 ng·h/mL. Moreover, the AUC(0-inf) came to 27.2 ng·h/mL in “clinical” (setting [8]) and 27.1 ng·h/mL in the data set “clinical” (both, human, in vivo, AUCinf, Median). Further, the Cmax in “clinical” (both, human, in vivo, Cmax) stood at 3.8 ng/mL; in the data set “clinical” (setting [9]) it was 3.8 ng/mL; in the data set “clinical” (setting [10]), 3.77 ± 1.51 ng/mL; in the data set “clinical” (both, human, in vivo, Cmax, Median), 3.7 ng/mL. Further, the Tmax was 1.8 ± 1.27 h in the data set “clinical” (both, human, in vivo, Tmax); 1 h in “clinical” (both, human, in vivo, Tmax (range), median); 1 h in the data set “clinical” (setting [11]); 1.79 h in “clinical” (both, human, in vivo, Tmax, Mean); 1 h in “clinical” (both, human, in vivo, Tmax, Median). Besides, the half-life in “clinical” (setting [12]) was 196 ± 48 min; in “clinical” (both, human, in vivo, t1/2, Median), 197 min.

On to `CN(C)CCc1c[nH]c2ccc(C[C@H]3COC(=O)N3)cc12` [nasal treatment of zolmitriptan, zolmitriptan], for which the “Patients pain free at 1 hour” value in the data set with migraine (nasal treatment) is “about 10%”.

“zolmitriptan [Zolmitriptan 2.5 mg Oral Tablet]”: in the data set “clinical” (setting [13]), the AUC2 hrs, Mean worked out at 2.31 ng·h/mL; the AUC2 hrs, Median was 2.24 ng·h/mL; the Cmax, Mean was 2.08 ng/mL; the Cmax, Median turned out to be 2.04 ng/mL. Further, in “clinical” (setting [14]), the “AUCinf, Mean” value came out at 14.55; the “AUCinf, Median” value is reported as 14.31; the “AUCt, Mean” value came out at 13.71; the “AUCt, Median” value stood at 13.76.

For `CNCCc1c[nH]c2ccc(C[C@H]3COC(=O)N3)cc12` [N-desmethyl zolmitriptan], in data set [2], the Kd was determined as 0.92 nM; the koff worked out at 0.000833 s⁻¹; the kon (in general, the rate constant with which the complex forms) turned out to be 900000 M⁻¹ s⁻¹. Besides, in data set [3], the Kd came to 0.43 nM, the koff worked out at 0.0009 s⁻¹ and the kon is 2.1e+06 M⁻¹ s⁻¹. The “5HT1B/1D potency relative to the parent” value in the data set on 5HT1B/1D is given as 2 to 6 times.

With `CN(C)CCc1c[nH]c2ccc(C[C@H]3COC(=O)N3)cc12` [orally disintegrating tablets, zolmitriptan], the Tmax entry in data set [4] (orally disintegrating tablets) is “about 3 hours”.

On to `CNS(=O)(=O)CCc1ccc2[nH]cc(C3CCN(C)CC3)c2c1` [naratriptan], for which, in the data set on migraine, the “Pain freedom at 2 hours” value is 18% and the “Pain relief at 2 hours” value is given as 49%.

Turning to `CNS(=O)(=O)Cc1ccc2[nH]cc(CCN(C)C)c2c1` [Sumatriptan, sumatriptan], the 24-hour recurrence rate with migraine (among those who achieved headache resolution, 6 mg, different trial) was 38%. In addition, the Tmax result in data set [4] (conventional oral tablet) is “about 2 hours”; in the data set “clinical” (setting [11]), 0.167 h; in the data set “clinical” (both, human, in vivo, sc, tmax Median (Range)), 0.167 h. The Bioavailability entry in data set [4] is “about 15%”. For the same compound, the AUC(0-t) in the data set “clinical” (setting [5]) worked out at 70.9 ng·h/mL; in the data set “clinical” (setting [6]), 101 ng·h/mL; in the data set “clinical” (setting [7]) it was 70.9 ng·h/mL. For the same compound, in “clinical” (setting [8]), the AUC(0-inf) was 105 ng·h/mL. Moreover, the highest concentration (Cmax) in “clinical” (setting [9]) and in “clinical” (setting [10]) was 88.8 ng/mL each time. The half-life in the data set “clinical” (both, human, in vivo, sc, t1/2 Mean (SD)) is 68.4 min; in “clinical” (setting [12]), 68.4 min.
